Data as given in US11077126B2 (priority 2017, dated 2021).

Experiments:
[1] = system: transplanted tumor of human renal clear cell adenocarcinoma 786-O cells; assay: Human renal clear cell adenocarcinoma in nude mice model; conditions: 786-O nude mice; 30 mg/kg i.g. 30 d
Experimental: 786-O cells in a logarithmic growth phase were taken and subjected to a trypan blue exclusion experiment showing that the cell viability was more than 95%, then the cells were subjected to trypsinization, centrifugation, and supernatant removal. Then cell concentration was adjusted to 1×10^7/ml with matrigel, and then each nude mouse was inoculated subcutaneously with 0.2 ml of cells at its right armpit and recorded as the first day of inoculation. […] Each group was continuously administered intragastrically for 30 days with a dose of 20 ml/kg. The mice were sacrificed the next day after drug withdrawal and the indicators were tested. The long diameter and short diameter of the tumor, and the body weight of each mouse were recorded every 3 days from drug administration to nude mouse sacrifice.
(§1) The body weight of the nude mice and the long diameter (a) and short diameter (b) of the transplanted tumor were measured every 3 days, and the tumor volume (v), relative tumor volume (RTV) and relative tumor proliferation rate (T/C) are calculated respectively according to the following formulas, wherein V=a×b^2/2; RTV=V/V0 (V0 is the tumor volume before administration, V is the tumor volume before sacrifice), and T/C (%)=treatment group RTV/model control group RTV×100%.
(§2) Each mouse was weighed and sacrificed. After the tumor was completely stripped off from the body of the mouse, the non-tumor tissues such as blood stains and fat were removed to weigh the tumor and calculate the tumor growth inhibition rate. The average tumor weight of each group of mice is used as an indicator of efficacy. Tumor growth inhibition rate (%)=(1−the average tumor weight of the treatment group/the average tumor weight of the model group)×100%.

[2] = system: thymus and spleen of H22 liver cancer tumor-bearing mice; type: in vivo
Experimental: (§3) After the tumor-bearing mice are sacrificed, the spleen and thymus are weighed, and the spleen index and thymus index are calculated.

[3] = system: spleen of A549 lung cancer tumor-bearing mice; type: in vivo
Experimental: as §3

[4] = system: transplanted tumor of human prostate cancer PC3 cells; assay: Human prostate cancer in nude mice model; conditions: 30 mg/kg i.g. 30 d
Experimental: (§4) Then cell concentration was adjusted to 1×10^7/ml with matrigel, and then each nude mouse was inoculated subcutaneously with 0.2 ml of cells at its right armpit and recorded as the first day of inoculation. […] Each group was continuously administered intragastrically for 30 days with a dose of 20 ml/kg. The mice were sacrificed the next day after drug withdrawal and the indicators were tested. The long diameter and short diameter of the tumor, and the body weight of each mouse were recorded every 3 days from drug administration to nude mouse sacrifice.
as §1, §2

[5] = system: transplanted tumor of mouse Lewis lung cancer; assay: Inhibition of transplanted tumor of mouse Lewis lung cancer
Experimental: Lewis lung cancer cells were cultured in a RPMI 1640 culture medium containing 10% fetal bovine serum at 37° C. in a 5% CO2 incubator. The cells in the logarithmic growth phase were subjected to trypsinization with 0.25% trypsin, then the cells were collected to be centrifugated to remove the obtained supernatant, then were washed twice with sterile normal saline. […] The Lewis cells were adjusted to 1×10^7/mL in concentration and stored in ice water. 75% ethanol was used to disinfect the skin under the right armpits of the mice, and each C57BL/6 mouse was soon inoculated subcutaneously with 0.2 ml of the cells at its right armpit.
In the Lewis lung cancer model, the mice inoculated with the tumor were randomly divided into groups with 10 mice in each group on the next day of inoculation. […] Each group was continuously administered intragastrically for 15 days with a dose of 20 ml/kg.
The tumor-bearing mice were weighed and sacrificed the next day after the last administration. The subcutaneous tumors were dissected and weighed. The average tumor weight of each group is calculated, and the tumor inhibition rate is calculated. Tumor inhibition rate=(1−T/C)×100%
T: average tumor weight of the drug-administered group; C: average tumor weight of the blank control group.

[6] = system: transplanted tumor of human colon cancer HT-29 cells; assay: Human colon cancer in nude mice model; conditions: HT-29 nude mice; 30 mg/kg i.g. 30 d
Experimental: Then cell concentration was adjusted to 1×10^7/ml with matrigel, then each nude mouse was inoculated subcutaneously with 0.2 ml of cells at its right armpit and recorded as the first day of inoculation. […] Each group was continuously administered intragastrically for 30 days with a dose of 20 ml/kg. The mice were sacrificed the next day after drug withdrawal and the indicators were tested. The long diameter and short diameter of the tumor, and the body weight of each mouse were recorded every 3 days from drug administration to nude mouse sacrifice.
as §1, §2

[7] = system: transplanted tumor of human breast cancer MCF-7 cells; assay: Human breast cancer (MCF-7) in nude mice model; conditions: MCF-7 nude mice; 30 mg/kg i.g. 30 d
Experimental: as §4, §1, §2

[8] = H22 tumor-bearing mice, cyclophosphamide, P<0.01

O=P1(N(CCCl)CCCl)NCCCO1 (stereo not shown) [Cyclophosphamide]
Body Weight (g)(d1) [1]: 21.57 ± 1.31 g
Body Weight (g)(d30) [1]: 20.39 ± 1.02 g
Inhibition Rate (%) [1]: 71.36%
Relative Tumor Proliferation Rate(T/C) [1]: 19.93%
Relative Tumor Volume (RTV) [1]: 3.34 ± 0.68
Tumor Volume (mm3) (d1) [1]: 181.48 ± 31.63 mm3
Tumor Volume (mm3) (d30) [1]: 606.14 ± 14.34 mm3
Tumor Weight [1]: 0.62 ± 0.17 g
Spleen Index (%) ([2]; 26 mg/kg, positive drug group): 0.38 ± 0.09 %
Thymus Index (%) ([2]; 26 mg/kg, positive drug group): 0.04 ± 0.02 %
spleen index compared with the control group [2, 8]: significantly lower
thymus index compared with the control group [2, 8]: significantly lower
Spleen Index (%) ([3]; 26 mg/kg, positive drug group, n = 6): 0.20 ± 0.03 %
spleen index compared with the control group ([3]; A549 lung cancer tumor-bearing mice, cyclophosphamide, P<0.01): significantly lower
Body Weight (g)(d1) [4]: 19.32 ± 0.25 g
Body Weight (g)(d30) [4]: 18.68 ± 1.21 g
Inhibition Rate (%) [4]: 70.06%
Relative Tumor Proliferation Rate(T/C) [4]: 23.29%
Relative Tumor Volume (RTV) [4]: 4.67 ± 0.82
Tumor Volume (mm3) (d1) [4]: 108.68 ± 13.62 mm3
Tumor Volume (mm3) (d30) [4]: 507.88 ± 87.93 mm3
Tumor Weight [4]: 0.56 ± 0.4 g
Tumor Weight ([5]; 26 mg/kg, positive drug group, 15 days): 0.59 ± 0.13 g
Inhibition Rate (%) ([5]; 26 mg/kg, positive drug group, by tumor weight): 49.14%
Body Weight (g)(d1) ([5]; 26 mg/kg, positive drug group, d1): 25.60 ± 2.06 g
Body Weight (g) (d15) ([5]; 26 mg/kg, positive drug group, d15): 20.14 ± 3.26 g
tumor inhibition rate ([5]; mouse Lewis lung cancer, cyclophosphamide 30 mg/kg i.g. 15 days): 49.14%
Body Weight (g)(d1) [6]: 23.76 ± 01.11 g
Body Weight (g)(d30) [6]: 21.52 ± 01.32 g
Inhibition Rate (%) [6]: 67.38%
Relative Tumor Proliferation Rate(T/C) [6]: 25.71%
Relative Tumor Volume (RTV) [6]: 5.21 ± 0.70
Tumor Volume (mm3) (d1) [6]: 156.61 ± 5.92 mm3
Tumor Volume (mm3) (d30) [6]: 816.17 ± 21.03 mm3
Tumor Weight [6]: 0.40 ± 0.03 g
Body Weight (g)(d1) [7]: 21.93 ± 0.89 g
Body Weight (g)(d30) [7]: 19.79 ± 1.47 g
Inhibition Rate (%) [7]: 62.3%
Relative Tumor Proliferation Rate(T/C) [7]: 30.58%
Relative Tumor Volume (RTV) [7]: 5.00 ± 1.27
Tumor Volume (mm3) (d1) [7]: 127.68 ± 14.89 mm3
Tumor Volume (mm3) (d30) [7]: 638.62 ± 123.11 mm3
Tumor Weight [7]: 0.72 ± 0.21 g
